Experimental findings from patent publication EP1935887A1, “Heterocyclic substituted carbonyl derivatives and their use as dopamine D3 receptor ligands” (Aventis Pharmaceuticals Inc., priority 2001, dated 2002) are described below.

Molecules are shown by their SMILES.

One experiment deals with T1, Cloned Human Dopamine D3 Receptors (Homo sapiens, UniProt P35462).
T1 construct: expressed in transfected cells; membrane homogenate
T1 sequence (P35462 whole entry): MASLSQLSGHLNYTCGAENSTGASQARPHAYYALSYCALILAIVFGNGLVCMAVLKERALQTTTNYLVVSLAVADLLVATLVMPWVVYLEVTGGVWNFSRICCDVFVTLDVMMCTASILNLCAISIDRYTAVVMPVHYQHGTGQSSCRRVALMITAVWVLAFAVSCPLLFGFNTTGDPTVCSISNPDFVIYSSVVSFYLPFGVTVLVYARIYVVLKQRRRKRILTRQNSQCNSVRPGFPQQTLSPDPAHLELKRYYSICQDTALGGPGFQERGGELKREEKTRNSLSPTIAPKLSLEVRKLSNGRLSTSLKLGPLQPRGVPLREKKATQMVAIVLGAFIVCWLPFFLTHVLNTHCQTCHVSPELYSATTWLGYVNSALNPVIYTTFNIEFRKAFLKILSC
Put plainly: [N-Methyl-3H]Spiroperidol binding to cloned human dopamine D3 receptors. The settings on record: Table 2; unit inferred; read-out: d3Ki. Summed up: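 [N-methyl-3H]spiroperidol binding is run in Tris buffer, pH 7.7. Receptor source is membranes of a stably transfected, high-expressing CHO clone carrying the human D3 gene, kept at -80°C in 10% DMSO.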
On to `CCOC(=O)[C@H]1CC[C@H](NC(=O)CCCN2CCN(c3csc4cc(C(F)(F)F)ccc34)CC2CCc2ccccc2)CC1` (stereo partly drawn) [compound 827071], for which the Ki turned out to be 454 nM. With `CN(C(=O)CCCN1CCN(c2csc3cc(C(F)(F)F)ccc23)CC1CCc1ccccc1)C1CCCCC1` (stereo not drawn) [compound 827074], the Ki is 267 nM.

On to `CN(C(=O)CCCN1CCN(c2csc3cc(C(F)(F)F)ccc23)CC1CCCc1ccccc1)C1CCCCC1` (stereo not drawn) [compound 827079], for which the Ki stood at 126 nM. `CCOC(=O)C1CCC(NC(=O)CCCN2CCN(c3csc4cc(F)ccc34)CC2Cc2ccccc2)CC1` (stereo not drawn) [compound 827086]: the Ki came out at 334 nM. On the same count and under the same terms, to `CCC1CCC(NC(=O)CCCN2CCN(c3csc4cc(F)ccc34)CC2Cc2ccccc2)CC1` (stereo not drawn) [compound 827087] belongs 178 nM; to `CC1CCCC(NC(=O)CCCN2CCN(c3csc4cc(F)ccc34)CC2Cc2ccccc2)C1` (stereo not drawn) [compound 827088], 284 nM; to `CN(C(=O)CCCN1CCN(c2csc3cc(F)ccc23)CC1Cc1ccccc1)C1CCCCC1` (stereo not drawn) [compound 827089], 307 nM. With `CCN(C(=O)CCCN1CCN(c2csc3cc(F)ccc23)CC1Cc1ccccc1)C1CCCCC1` (stereo not drawn) [compound 827090], the Ki was 346 nM. As for `O=C(CCCN1CCN(c2csc3cc(F)ccc23)CC1Cc1ccccc1)NC1CCCC1` (stereo not drawn) [compound 827101], the Ki came to 148 nM. Turning to `O=C(CCCN1CCN(c2csc3cc(F)ccc23)CC1Cc1ccccc1)NC1CCCCC1` (stereo not drawn) [compound 827102], the Ki stood at 218 nM. `C[C@H]1CC[C@H](NC(=O)CCCN2CCN(c3csc4cc(F)ccc34)CC2CCCc2ccccc2)CC1` (stereo partly drawn) [compound 827105]: the Ki was 117 nM. Regarding `CCOC(=O)C1CCC(NC(=O)CCCN2CCN(c3csc4cc(F)ccc34)CC2CCCc2ccccc2)CC1` (stereo not drawn) [compound 827106], the Ki is 317 nM.

`CC[C@H]1CC[C@H](NC(=O)CCCN2CCN(c3csc4cc(F)ccc34)CC2CCCc2ccccc2)CC1` (stereo partly drawn) [compound 827107]: the Ki stood at 489 nM. Still for that read-out and setting: to `CC1CCCC(NC(=O)CCCN2CCN(c3csc4cc(F)ccc34)CC2CCCc2ccccc2)C1` (stereo not drawn) [compound 827108] belongs 302 nM. For `CN(C(=O)CCCN1CCN(c2csc3cc(F)ccc23)CC1CCCc1ccccc1)C1CCCCC1` (stereo not drawn) [compound 827109], the Ki was found to be 78.6 nM. `CCN(C(=O)CCCN1CCN(c2csc3cc(F)ccc23)CC1CCCc1ccccc1)C1CCCCC1` (stereo not drawn) [compound 827110]: the Ki amounted to 208 nM. In the case of `O=C(CCCN1CCN(c2csc3cc(F)ccc23)CC1CCCc1ccccc1)N(CCO)C1CCCCC1` (stereo not drawn) [compound 827111], the Ki came out at 143 nM.

Staying with this experiment, now noted: Table 2 part the 10th table; read-out: d3Ki.
As for `O=C(CCCN1CCN(c2csc3cc(C(F)(F)F)ccc23)CC1Cc1ccccc1)N1CCC(N2CCCC2)CC1` (stereo not drawn) [compound 827067], the Ki was 268 nM. Still for that read-out and setting: to `CC1(C)CCCN(C(=O)CCCN2CCN(c3csc4cc(C(F)(F)F)ccc34)CC2Cc2ccccc2)C1` (stereo not drawn) [compound 827068] belongs 197 nM. With `CCOC(=O)C1CCN(C(=O)CCCN2CCN(c3csc4cc(C(F)(F)F)ccc34)CC2CCCc2ccccc2)CC1` (stereo not drawn) [compound 827082], the Ki was found to be 303 nM. For `CC1CCCCN1C(=O)CCCN1CCN(c2csc3cc(C(F)(F)F)ccc23)CC1CCCc1ccccc1` (stereo not drawn) [compound 827084], the Ki came to 266 nM.

`O=C(CCCN1CCN(c2csc3cc(F)ccc23)CC1Cc1ccccc1)N1CCC(O)CC1` (stereo not drawn) [compound 827093]: the Ki came to 84 nM.

On to `CC1CCCCN1C(=O)CCCN1CCN(c2csc3cc(F)ccc23)CC1Cc1ccccc1` (stereo not drawn) [compound 827094], for which the Ki is 34.6 nM.

`CC1CCN(C(=O)CCCN2CCN(c3csc4cc(F)ccc34)CC2Cc2ccccc2)CC1` (stereo not drawn) [compound 827095]: the Ki turned out to be 37.8 nM.

On to `CC1CCCN(C(=O)CCCN2CCN(c3csc4cc(F)ccc34)CC2Cc2ccccc2)C1` (stereo not drawn) [compound 827096], for which the Ki is 44.7 nM. Turning to `O=C(CCCN1CCN(c2csc3cc(F)ccc23)CC1Cc1ccccc1)N1CCC(N2CCCC2)CC1` (stereo not drawn) [compound 827097], the Ki is 51.5 nM. On to `CC1(C)CCCN(C(=O)CCCN2CCN(c3csc4cc(F)ccc34)CC2Cc2ccccc2)C1` (stereo not drawn) [compound 827098], for which the Ki came to 82.9 nM.

For the molecule `CC1CC(C)CN(C(=O)CCCN2CCN(c3csc4cc(F)ccc34)CC2Cc2ccccc2)C1` (stereo not drawn) [compound 827099], the Ki is 144 nM. In the case of `O=C(CCCN1CCN(c2csc3cc(F)ccc23)CC1Cc1ccccc1)N1CCCC1` (stereo not drawn) [compound 827100], the Ki was 63.5 nM. The same measure, in the same setting: to `CC1CCCN1C(=O)CCCN1CCN(c2csc3cc(F)ccc23)CC1Cc1ccccc1` (stereo not drawn) [compound 827103] belongs 81.7 nM.

`CN(C)C1CCN(C(=O)CCCN2CCN(c3csc4cc(F)ccc34)CC2Cc2ccccc2)C1` (stereo not drawn) [compound 827104]: the Ki turned out to be 141 nM.

Turning to `CCOC(=O)C1CCN(C(=O)CCCN2CCN(c3csc4cc(F)ccc34)CC2CCCc2ccccc2)CC1` (stereo not drawn) [compound 827112], the Ki was 126 nM.

With `O=C(CCCN1CCN(c2csc3cc(F)ccc23)CC1CCCc1ccccc1)N1CCC(O)CC1` (stereo not drawn) [compound 827113], the Ki turned out to be 95 nM. For `CC1CCCCN1C(=O)CCCN1CCN(c2csc3cc(F)ccc23)CC1CCCc1ccccc1` (stereo not drawn) [compound 827114], the Ki was determined as 120 nM.

The same experiment, now with this note: read-out: D3 Ki.
Regarding `CC(C)(C)OC(=O)N1CCN(C[C@@H]2C[C@H]2C(=O)N[C@H]2CC[C@H](C)CC2)CC1` [compound 827184], the Ki amounted to 237 nM.

Staying with this experiment, now noted: read-out: d3Ki.
As for `C[C@H]1CC[C@H](NC(=O)[C@@H]2C[C@H]2CN2CCN(c3cccc(Cl)c3)CC2)CC1` [compound 827173], the Ki was 2.78 nM. With `Cc1ccc(N2CCN(C[C@@H]3C[C@H]3C(=O)N[C@H]3CC[C@H](C)CC3)CC2)cc1` [compound 827174], the Ki came out at 8.7 nM. For `C[C@H]1CC[C@H](NC(=O)[C@@H]2C[C@H]2CN2CCN(c3ccccn3)CC2)CC1` [compound 827175], the Ki came out at 4 nM. Take `CCOc1ccccc1N1CCN(C[C@@H]2C[C@H]2C(=O)N[C@H]2CC[C@H](C)CC2)CC1` [compound 827176]: the Ki was found to be 1.18 nM. With `C[C@H]1CC[C@H](NC(=O)[C@@H]2C[C@H]2CN2CCN(c3ccccc3Cl)CC2)CC1` [compound 827177], the Ki came out at 1 nM. `C[C@H]1CC[C@H](NC(=O)[C@@H]2C[C@H]2CN2CCN(c3ccc(Cl)cc3)CC2)CC1` [compound 827178]: the Ki is 12.4 nM. `COc1ccccc1N1CCN(C[C@@H]2C[C@H]2C(=O)N[C@H]2CC[C@H](C)CC2)CC1` [compound 827179]: the Ki was 1.04 nM. As for `Cc1cccc(N2CCN(C[C@@H]3C[C@H]3C(=O)N[C@H]3CC[C@H](C)CC3)CC2)c1` [compound 827180], the Ki was 2.47 nM. As for `C[C@H]1CC[C@H](NC(=O)[C@@H]2C[C@H]2CN2CCN(c3ccc(C(F)(F)F)cc3Cl)CC2)CC1` [compound 827181], the Ki was 97.2 nM. In the case of `C[C@H]1CC[C@H](NC(=O)[C@@H]2C[C@H]2CN2CCN(c3ccc(C(F)(F)F)cn3)CC2)CC1` [compound 827182], the Ki stood at 73 nM.

As to `C[C@H]1CC[C@H](NC(=O)[C@@H]2C[C@H]2CN2CCN(c3ncccc3C(F)(F)F)CC2)CC1` [compound 827183], the Ki turned out to be 3.29 nM.

On to `C[C@H]1CC[C@H](NC(=O)[C@@H]2C[C@H]2CN2CCN(c3ccc(Cl)c(Cl)c3)CC2)CC1` [compound 827185], for which the Ki was 4.89 nM. The same measure, in the same setting: to `Cc1ccc(C)c(N2CCN(C[C@@H]3C[C@H]3C(=O)N[C@H]3CC[C@H](C)CC3)CC2)c1` [compound 827186] belongs 8.21 nM.
